# Laboratory results taken from US12227500B2, “Substituted pyrrolo[2,3-b]pyridines for suppressing toxic endoplasmic reticulum stress” (THE TRUSTEES OF COLUMBIA UNIVERSITY IN THE CITY OF NEW YORK, priority 2018, dated 2025).
# Like-named read-outs stand apart in the source and are kept apart here.
# Legend:
# Test in all cases: Radiolabeled ATP kinase assay, panel of 371 kinases (Table S6)
# Format in all cases: biochemical
# [1] = target: T1, panel of 371 human kinases (Homo sapiens, UniProt P50750); settings: 0.1 μM, 10 μM ATP, read-out: % Enzyme Activity (relative to DMSO controls)
# T1 construct: purchased Reaction Biology Corp
# T1 sequence (P50750 whole entry): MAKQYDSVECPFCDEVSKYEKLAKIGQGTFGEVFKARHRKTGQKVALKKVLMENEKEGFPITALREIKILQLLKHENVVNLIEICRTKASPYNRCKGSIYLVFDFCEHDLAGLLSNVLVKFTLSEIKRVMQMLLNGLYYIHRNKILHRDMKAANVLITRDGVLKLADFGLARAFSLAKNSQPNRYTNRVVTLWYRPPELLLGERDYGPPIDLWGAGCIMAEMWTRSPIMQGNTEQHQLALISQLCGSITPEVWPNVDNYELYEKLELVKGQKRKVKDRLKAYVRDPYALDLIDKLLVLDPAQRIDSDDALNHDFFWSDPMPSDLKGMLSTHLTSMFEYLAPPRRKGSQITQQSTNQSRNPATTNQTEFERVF
# Source text: (§1) ; FIG. 38C). […]. Further targeted analyses, such as genetic knock-down or knock-out, may be warranted to parse the role of these additional kinases in our model of neurodegeneration.
# [2] = target: T2, panel of 371 human kinases (Homo sapiens, UniProt Q9H422); settings: HIPK3; 0.1 μM; 10 μM ATP; read-out: % Enzyme Activity (relative to DMSO controls)
# T2 construct: purchased Reaction Biology Corp
# Source text: as §1
# [3] = target: T3, panel of 371 human kinases (Homo sapiens, UniProt Q16539); settings: P38a/MAPK14; 0.1 μM; 10 μM ATP; read-out: % Enzyme Activity (relative to DMSO controls)
# T3 construct: purchased Reaction Biology Corp
# Source text: as §1
# [4] = target: T4, panel of 371 human kinases (Homo sapiens, UniProt Q16512); settings: PKN1/PRK1; 0.1 μM; 10 μM ATP; read-out: % Enzyme Activity (relative to DMSO controls)
# T4 construct: purchased Reaction Biology Corp
# Source text: as §1
# [5] = target: T5, panel of 371 human kinases (Homo sapiens, UniProt Q9BYT3); settings: STK33; 0.1 μM; 10 μM ATP; read-out: % Enzyme Activity (relative to DMSO controls)
# T5 construct: purchased Reaction Biology Corp
# T5 sequence (Q9BYT3 whole entry): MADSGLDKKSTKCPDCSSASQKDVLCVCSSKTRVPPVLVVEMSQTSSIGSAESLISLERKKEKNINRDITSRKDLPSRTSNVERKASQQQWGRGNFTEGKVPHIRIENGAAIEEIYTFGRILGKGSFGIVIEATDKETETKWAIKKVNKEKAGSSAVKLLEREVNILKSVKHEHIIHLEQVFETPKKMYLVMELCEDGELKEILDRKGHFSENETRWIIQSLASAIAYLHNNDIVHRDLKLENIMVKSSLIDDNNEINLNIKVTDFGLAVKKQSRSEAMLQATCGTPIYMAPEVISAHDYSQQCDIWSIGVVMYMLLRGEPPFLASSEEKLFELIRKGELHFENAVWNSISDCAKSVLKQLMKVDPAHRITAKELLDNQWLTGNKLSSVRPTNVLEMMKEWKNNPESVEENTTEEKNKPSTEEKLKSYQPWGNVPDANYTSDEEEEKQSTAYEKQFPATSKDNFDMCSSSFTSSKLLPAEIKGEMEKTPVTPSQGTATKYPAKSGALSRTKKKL
# Source text: as §1
# [6] = target: T6, panel of 371 human kinases (Homo sapiens, UniProt P51956); settings: NEK3; 0.1 μM; 10 μM ATP; read-out: % Enzyme Activity (relative to DMSO controls)
# T6 construct: purchased Reaction Biology Corp
# Source text: as §1
# [7] = target: T7, panel of 371 human kinases (Homo sapiens, UniProt O14733); settings: MKK7; 0.1 μM; 10 μM ATP; read-out: % Enzyme Activity (relative to DMSO controls)
# T7 construct: purchased Reaction Biology Corp
# T7 sequence (O14733 whole entry): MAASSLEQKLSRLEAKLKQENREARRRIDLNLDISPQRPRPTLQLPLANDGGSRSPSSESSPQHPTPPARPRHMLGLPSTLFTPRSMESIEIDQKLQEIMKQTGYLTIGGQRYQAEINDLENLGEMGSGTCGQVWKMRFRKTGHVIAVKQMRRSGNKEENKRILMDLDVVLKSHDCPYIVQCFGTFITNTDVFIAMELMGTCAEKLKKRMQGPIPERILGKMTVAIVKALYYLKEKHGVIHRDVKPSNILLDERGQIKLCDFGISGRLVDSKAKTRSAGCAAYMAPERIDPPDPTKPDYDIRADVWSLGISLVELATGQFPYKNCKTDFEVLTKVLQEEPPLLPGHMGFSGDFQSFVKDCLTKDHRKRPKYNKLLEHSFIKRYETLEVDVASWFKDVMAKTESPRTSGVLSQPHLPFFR
# Source text: as §1
# [8] = target: T8, panel of 371 human kinases (Homo sapiens, UniProt P17948); settings: FLT1/VEGFR1; 0.1 μM; 10 μM ATP; read-out: % Enzyme Activity (relative to DMSO controls)
# T8 construct: purchased Reaction Biology Corp
# Source text: as §1
# [9] = target: T9, panel of 371 human kinases (Homo sapiens, UniProt P29322); settings: EPHA8; 0.1 μM; 10 μM ATP; read-out: % Enzyme Activity (relative to DMSO controls)
# T9 construct: purchased Reaction Biology Corp
# Source text: as §1
# [10] = target: T10, panel of 371 human kinases (Homo sapiens, UniProt P16234); settings: PDGFRa; 0.1 μM; 10 μM ATP; read-out: % Enzyme Activity (relative to DMSO controls)
# T10 construct: purchased Reaction Biology Corp
# Source text: as §1
# [11] = target: T11, panel of 371 human kinases (Homo sapiens, UniProt Q15569); settings: TESK1; 0.1 μM; 10 μM ATP; read-out: % Enzyme Activity (relative to DMSO controls)
# T11 construct: purchased Reaction Biology Corp
# Source text: as §1
# [12] = target: T12, panel of 371 human kinases (Homo sapiens, UniProt Q9Y2H1); settings: STK38/NDR2; 0.1 μM; 10 μM ATP; read-out: % Enzyme Activity (relative to DMSO controls)
# T12 construct: purchased Reaction Biology Corp
# T12 sequence (Q9Y2H1 whole entry): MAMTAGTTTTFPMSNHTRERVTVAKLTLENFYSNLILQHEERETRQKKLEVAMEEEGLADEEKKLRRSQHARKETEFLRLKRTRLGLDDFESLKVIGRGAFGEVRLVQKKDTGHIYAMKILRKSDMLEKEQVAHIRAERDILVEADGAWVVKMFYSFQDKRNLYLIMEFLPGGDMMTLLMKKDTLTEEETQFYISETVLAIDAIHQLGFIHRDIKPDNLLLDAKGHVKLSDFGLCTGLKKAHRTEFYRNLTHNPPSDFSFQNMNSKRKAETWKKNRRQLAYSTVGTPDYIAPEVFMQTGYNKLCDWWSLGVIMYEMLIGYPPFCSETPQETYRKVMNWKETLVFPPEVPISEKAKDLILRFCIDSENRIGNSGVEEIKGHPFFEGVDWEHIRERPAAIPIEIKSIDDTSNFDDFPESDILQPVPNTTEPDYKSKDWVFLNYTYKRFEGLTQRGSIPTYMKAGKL
# Source text: as §1
# [13] = target: T13, panel of 371 human kinases (Homo sapiens, UniProt P51812); settings: RSK2; 0.1 μM; 10 μM ATP; read-out: % Enzyme Activity (relative to DMSO controls)
# T13 construct: purchased Reaction Biology Corp
# Source text: as §1
# [14] = target: T14, panel of 371 human kinases (Homo sapiens, UniProt P17612); settings: PKA; 0.1 μM; 10 μM ATP; read-out: % Enzyme Activity (relative to DMSO controls)
# T14 construct: purchased Reaction Biology Corp
# Source text: as §1
# [15] = target: T15, panel of 371 human kinases (Homo sapiens, UniProt Q8TF76); settings: Haspin; 0.1 μM; 10 μM ATP; read-out: % Enzyme Activity (relative to DMSO controls)
# T15 construct: purchased Reaction Biology Corp
# Source text: as §1
# [16] = target: T16, panel of 371 human kinases (Homo sapiens, UniProt P14616); settings: IRR/INSRR; 0.1 μM; 10 μM ATP; read-out: % Enzyme Activity (relative to DMSO controls)
# T16 construct: purchased Reaction Biology Corp
# Source text: as §1
# [17] = target: T17, panel of 371 human kinases (Homo sapiens, UniProt O94804); settings: LOK/STK10; 0.1 μM; 10 μM ATP; read-out: % Enzyme Activity (relative to DMSO controls)
# T17 construct: purchased Reaction Biology Corp
# T17 sequence (O94804 whole entry): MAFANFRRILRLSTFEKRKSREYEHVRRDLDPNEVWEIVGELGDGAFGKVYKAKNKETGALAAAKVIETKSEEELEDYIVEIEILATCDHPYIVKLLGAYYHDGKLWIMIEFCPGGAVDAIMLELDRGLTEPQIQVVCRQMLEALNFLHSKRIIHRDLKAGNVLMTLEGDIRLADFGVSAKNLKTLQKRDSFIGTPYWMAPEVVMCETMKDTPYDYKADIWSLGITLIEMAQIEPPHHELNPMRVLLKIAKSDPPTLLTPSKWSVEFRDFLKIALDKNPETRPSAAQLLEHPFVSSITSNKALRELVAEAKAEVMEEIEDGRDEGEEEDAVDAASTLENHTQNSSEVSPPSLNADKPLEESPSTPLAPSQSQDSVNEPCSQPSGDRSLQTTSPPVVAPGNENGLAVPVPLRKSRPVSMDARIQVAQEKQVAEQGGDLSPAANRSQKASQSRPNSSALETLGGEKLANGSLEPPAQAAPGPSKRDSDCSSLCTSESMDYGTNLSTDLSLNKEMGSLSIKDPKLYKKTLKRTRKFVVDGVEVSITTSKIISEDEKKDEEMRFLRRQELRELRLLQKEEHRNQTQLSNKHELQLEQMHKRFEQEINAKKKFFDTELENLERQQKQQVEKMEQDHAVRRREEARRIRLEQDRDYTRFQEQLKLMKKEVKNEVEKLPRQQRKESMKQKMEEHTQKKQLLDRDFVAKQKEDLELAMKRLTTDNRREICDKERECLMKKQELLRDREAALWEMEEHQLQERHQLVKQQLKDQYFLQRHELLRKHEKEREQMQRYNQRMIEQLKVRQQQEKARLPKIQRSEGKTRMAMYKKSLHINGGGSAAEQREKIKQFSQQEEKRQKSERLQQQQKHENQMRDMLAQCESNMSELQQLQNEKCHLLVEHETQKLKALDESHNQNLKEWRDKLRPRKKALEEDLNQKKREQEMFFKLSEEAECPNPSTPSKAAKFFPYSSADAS
# Source text: as §1
# [18] = target: T18, panel of 371 human kinases (Homo sapiens, UniProt P29323); settings: EPHB2; 0.1 μM; 10 μM ATP; read-out: % Enzyme Activity (relative to DMSO controls)
# T18 construct: purchased Reaction Biology Corp
# Source text: as §1
# [19] = target: T19, panel of 371 human kinases (Homo sapiens, UniProt P06239); settings: LCK; 0.1 μM; 10 μM ATP; read-out: % Enzyme Activity (relative to DMSO controls)
# T19 construct: purchased Reaction Biology Corp
# Source text: as §1
# [20] = target: T20, panel of 371 human kinases (Homo sapiens, UniProt Q9HC98); settings: NEK6; 0.1 μM; 10 μM ATP; read-out: % Enzyme Activity (relative to DMSO controls)
# T20 construct: purchased Reaction Biology Corp
# Source text: as §1
# [21] = target: T21, panel of 371 human kinases (Homo sapiens, UniProt Q86V86); settings: PIM3; 0.1 μM; 10 μM ATP; read-out: % Enzyme Activity (relative to DMSO controls)
# T21 construct: purchased Reaction Biology Corp
# Source text: as §1
# [22] = target: T22, panel of 371 human kinases (Homo sapiens, UniProt Q05397); settings: FAK/PTK2; 0.1 μM; 10 μM ATP; read-out: % Enzyme Activity (relative to DMSO controls)
# T22 construct: purchased Reaction Biology Corp
# T22 sequence (Q05397 whole entry): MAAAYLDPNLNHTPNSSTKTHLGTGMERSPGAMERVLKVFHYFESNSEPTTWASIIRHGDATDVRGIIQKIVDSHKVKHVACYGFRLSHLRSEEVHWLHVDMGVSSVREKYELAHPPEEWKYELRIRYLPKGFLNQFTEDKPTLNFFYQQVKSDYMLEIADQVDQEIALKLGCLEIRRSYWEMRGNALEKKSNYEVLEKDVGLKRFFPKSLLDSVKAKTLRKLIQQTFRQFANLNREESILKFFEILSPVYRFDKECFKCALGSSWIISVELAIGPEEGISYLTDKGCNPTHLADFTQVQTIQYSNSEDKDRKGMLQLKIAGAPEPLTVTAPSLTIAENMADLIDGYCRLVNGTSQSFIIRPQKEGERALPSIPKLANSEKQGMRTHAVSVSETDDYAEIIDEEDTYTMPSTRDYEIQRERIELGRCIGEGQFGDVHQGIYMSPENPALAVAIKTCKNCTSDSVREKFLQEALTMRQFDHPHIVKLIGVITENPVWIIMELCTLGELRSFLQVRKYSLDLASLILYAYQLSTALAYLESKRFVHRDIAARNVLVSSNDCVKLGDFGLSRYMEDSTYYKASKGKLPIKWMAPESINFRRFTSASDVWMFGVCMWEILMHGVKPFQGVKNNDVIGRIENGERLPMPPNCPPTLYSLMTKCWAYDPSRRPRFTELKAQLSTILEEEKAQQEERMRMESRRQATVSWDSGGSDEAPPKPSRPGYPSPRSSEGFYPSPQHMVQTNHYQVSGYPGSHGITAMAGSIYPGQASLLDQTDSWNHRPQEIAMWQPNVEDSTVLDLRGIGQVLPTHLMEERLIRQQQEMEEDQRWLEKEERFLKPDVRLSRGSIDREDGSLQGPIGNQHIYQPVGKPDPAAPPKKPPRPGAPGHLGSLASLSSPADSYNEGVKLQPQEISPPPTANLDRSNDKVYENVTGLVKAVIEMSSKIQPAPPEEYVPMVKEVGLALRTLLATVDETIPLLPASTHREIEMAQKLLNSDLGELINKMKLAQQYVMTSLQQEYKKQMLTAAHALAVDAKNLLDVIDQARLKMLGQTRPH
# Source text: as §1
# [23] = target: T23, panel of 371 human kinases (Homo sapiens, UniProt Q9NRM7); settings: LATS2; 0.1 μM; 10 μM ATP; read-out: % Enzyme Activity (relative to DMSO controls)
# T23 construct: purchased Reaction Biology Corp
# T23 sequence (Q9NRM7 whole entry): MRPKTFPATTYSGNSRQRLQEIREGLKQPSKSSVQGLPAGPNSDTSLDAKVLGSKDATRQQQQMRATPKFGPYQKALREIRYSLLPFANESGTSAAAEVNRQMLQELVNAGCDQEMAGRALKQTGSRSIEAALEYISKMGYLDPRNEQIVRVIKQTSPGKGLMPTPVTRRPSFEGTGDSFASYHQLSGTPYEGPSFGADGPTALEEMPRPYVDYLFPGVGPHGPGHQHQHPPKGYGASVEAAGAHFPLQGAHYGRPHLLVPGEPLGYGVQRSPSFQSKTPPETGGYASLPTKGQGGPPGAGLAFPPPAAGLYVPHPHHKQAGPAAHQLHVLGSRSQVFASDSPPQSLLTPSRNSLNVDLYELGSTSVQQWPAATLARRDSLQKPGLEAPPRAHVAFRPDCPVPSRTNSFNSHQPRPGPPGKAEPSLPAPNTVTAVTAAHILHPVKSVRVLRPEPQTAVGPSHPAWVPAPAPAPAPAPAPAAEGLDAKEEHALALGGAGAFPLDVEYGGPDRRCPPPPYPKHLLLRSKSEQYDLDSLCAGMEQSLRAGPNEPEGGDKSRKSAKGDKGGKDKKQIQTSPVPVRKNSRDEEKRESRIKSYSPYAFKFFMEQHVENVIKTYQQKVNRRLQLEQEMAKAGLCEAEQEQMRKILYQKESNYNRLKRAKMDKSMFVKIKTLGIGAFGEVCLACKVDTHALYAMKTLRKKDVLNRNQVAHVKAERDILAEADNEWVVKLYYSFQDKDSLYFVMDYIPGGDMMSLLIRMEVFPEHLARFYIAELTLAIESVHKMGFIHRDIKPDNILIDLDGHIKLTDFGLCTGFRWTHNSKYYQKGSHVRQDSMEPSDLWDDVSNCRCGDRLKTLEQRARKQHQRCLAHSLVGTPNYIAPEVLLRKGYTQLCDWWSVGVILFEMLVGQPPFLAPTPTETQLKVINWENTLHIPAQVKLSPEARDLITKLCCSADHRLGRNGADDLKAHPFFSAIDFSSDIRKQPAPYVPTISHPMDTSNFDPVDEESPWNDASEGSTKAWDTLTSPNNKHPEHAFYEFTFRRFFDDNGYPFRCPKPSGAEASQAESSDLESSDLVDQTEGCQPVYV
# Source text: as §1
# [24] = target: T24, panel of 371 human kinases (Homo sapiens, UniProt Q56UN5); settings: VSK4/MAP3K19; 0.1 μM; 10 μM ATP; read-out: % Enzyme Activity (relative to DMSO controls)
# T24 construct: purchased Reaction Biology Corp
# Source text: as §1
SMILES,remaining activity at 0.1 µM ([1]; CDK9/cyclin K) [%],remaining activity at 0.1 µM ([1]; CDK9/cyclin T1) [%],remaining activity at 0.1 µM ([1]; CDK9/cyclin T2) [%],remaining activity at 0.1 µM [2] [%],remaining activity at 0.1 µM [3] [%],remaining activity at 0.1 µM [4] [%],remaining activity at 0.1 µM [5] [%],remaining activity at 0.1 µM [6] [%],remaining activity at 0.1 µM [7] [%],remaining activity at 0.1 µM [8] [%],remaining activity at 0.1 µM [9] [%],remaining activity at 0.1 µM [10] [%],remaining activity at 0.1 µM [11] [%],remaining activity at 0.1 µM [12] [%],remaining activity at 0.1 µM [13] [%],remaining activity at 0.1 µM [14] [%],remaining activity at 0.1 µM [15] [%],remaining activity at 0.1 µM [16] [%],remaining activity at 0.1 µM [17] [%],remaining activity at 0.1 µM [18] [%],other results
"CN1CCN(Cc2ccc(-c3cnc4[nH]cc(-c5ccc6[nH]ccc6c5)c4c3)cc2)CC1 [Compound 1, 3-(1H-Indol-5-yl)-5-(4-((4-methylpiperazin-1-yl)methyl)phenyl)-1H-pyrrolo[2,3-b]pyridine, reference compound]",79.8,86,112,103,105,94,72.6,88.3,99.8,88.2,90.8,86.9,105,87.7,105,104,128,50.1,73.2,88.6,remaining activity at 0.1 µM [19]: 94.2%; remaining activity at 0.1 µM [20]: 92.7%; remaining activity at 0.1 µM [21]: 92.9%; remaining activity at 0.1 µM [22]: 86.3%; remaining activity at 0.1 µM [23]: 83.2%; remaining activity at 0.1 µM [24]: 101%
"OCCN1CCN(Cc2ccc(-c3cnc4[nH]cc(-c5cccc(Cl)c5)c4c3)cc2)CC1 [Compound 12k, 2-(4-(4-(3-(3-Chlorophenyl)-1H-pyrrolo[2,3-b]pyridin-5-yl)benzyl)piperazin-1-yl)ethan-1-ol]",88.5,88.7,99.1,113,103,95,88.6,91.1,105,90.9,93.5,87.8,101,77.8,77.3,94.5,75,89.9,59.1,98.3,remaining activity at 0.1 µM [19]: 98.8%; remaining activity at 0.1 µM [20]: 95.1%; remaining activity at 0.1 µM [21]: 106%; remaining activity at 0.1 µM [22]: 88.5%; remaining activity at 0.1 µM [23]: 88.1%; remaining activity at 0.1 µM [24]: 107%
